Source: the NIST ThermoML archive (doi:10.1016/j.jct.2006.05.012)

Columns and labels:
[1] = xn = mol fraction of the nth substance listed; details: 298.15 K, 101 kPa, Liquid
[2] = 298.15 K; 101 kPa; Liquid

C=C(C)C(=O)OC [methyl methacrylate] + Cc1ccccc1
[1]
Details | mass density [kg/m3]
x2 = 0 | 937.646
x2 = 0.0249 | 935.719
x2 = 0.0501 | 933.759
x2 = 0.1005 | 929.859
x2 = 0.15 | 926.06
x2 = 0.1994 | 922.3
x2 = 0.2497 | 918.45
x2 = 0.3001 | 914.63
x2 = 0.35 | 910.852
x2 = 0.3998 | 907.089
x2 = 0.4501 | 903.299
x2 = 0.5 | 899.556
x2 = 0.5501 | 895.803
x2 = 0.5979 | 892.219
x2 = 0.6486 | 888.421
x2 = 0.6998 | 884.596
x2 = 0.7499 | 880.84
x2 = 0.794 | 877.532
x2 = 0.8481 | 873.485
x2 = 0.9 | 869.606
x2 = 0.95 | 865.864
x2 = 0.9731 | 864.133

C=C(C)C(=O)OC [methyl methacrylate]
Details | mass density [kg/m3]
[2] | 937.65

C=C(C)C(=O)OC [methyl methacrylate] + C=CC(=O)OCCCC
Details | mass density [kg/m3]
[1], x2 = 0 | 937.65

Cc1ccccc1 [toluene] + C=C(C)C(=O)OC
Details | mass density [kg/m3]
[1], x1 = 1 | 862.11

Cc1ccccc1 [toluene] + C=CC(=O)OCCCC
Details | mass density [kg/m3]
[1], x1 = 1 | 862.11

C=CC(=O)OCCCC [butyl 2-propenoate] + C=C(C)C(=O)OC
[1]
Details | mass density [kg/m3]
x1 = 0.025 | 936.15
x1 = 0.0501 | 934.64
x1 = 0.1001 | 931.77
x1 = 0.1502 | 929.01
x1 = 0.2 | 926.33
x1 = 0.25 | 923.76
x1 = 0.2946 | 921.53
x1 = 0.3498 | 918.85
x1 = 0.3992 | 916.57
x1 = 0.45 | 914.28
x1 = 0.4999 | 912.12
x1 = 0.5499 | 910.04
x1 = 0.5999 | 908.01
x1 = 0.644 | 906.27
x1 = 0.6991 | 904.19
x1 = 0.7499 | 902.33
x1 = 0.8002 | 900.52
x1 = 0.8504 | 898.81
x1 = 0.8994 | 897.15
x1 = 0.9499 | 895.53
x1 = 0.9749 | 894.72
x1 = 1 | 893.96

Cc1ccccc1 [toluene]
Details | mass density [kg/m3]
[2] | 862.11

C=CC(=O)OCCCC [butyl 2-propenoate] + Cc1ccccc1
[1]
Details | mass density [kg/m3]
x2 = 0 | 893.955
x2 = 0.0255 | 893.406
x2 = 0.0508 | 892.895
x2 = 0.0999 | 891.775
x2 = 0.1509 | 890.523
x2 = 0.2006 | 889.277
x2 = 0.2506 | 887.998
x2 = 0.2996 | 886.7
x2 = 0.3597 | 885.033
x2 = 0.4006 | 883.858
x2 = 0.4504 | 882.402
x2 = 0.5015 | 880.847
x2 = 0.55 | 879.307
x2 = 0.6006 | 877.659
x2 = 0.6502 | 875.977
x2 = 0.7003 | 874.219
x2 = 0.7501 | 872.408
x2 = 0.8 | 870.53
x2 = 0.8499 | 868.551
x2 = 0.9001 | 866.487
x2 = 0.95 | 864.338
x2 = 0.9751 | 863.216

C=CC(=O)OCCCC [butyl 2-propenoate]
Details | mass density [kg/m3]
[2] | 893.96
